This data set is described as follows: Heat exposure of muscimol during distillation. It is filed as physicochemical. The settings on record: after being exposed to heat for 3 hours (distillation). On the procedure: In one example, distillation is performed for about 0.5 hours to about 6 hours. In some embodiments, distillation is performed for about 5 to about 6 hours. In another example, it is performed for about 2 to about 3 hours. In another example, it is performed for about 3 hours. […] However, in some embodiments, further distillation beyond 3 hours, such as 4 hours, 5 hours, 6 hours, or more than 6 hours, may be advantageous. In some embodiments, the resulting muscimol extract is a liquid.
The refluxed extract was then distilled for a period of 3 hours. Samples were taken prior to distillation, after 1 hour, 2 hours, and at 3 hours of distillation, as discussed further below. After distillation, the filtrate was cooled to 3° C. in a refrigerator. After about 3 hours of cooling, there was coagulated material suspended in the filtrate. The coagulated material in the filtrate was removed via vacuum filtration through the vacuum filtration setup described above (without the cheesecloth). After filtration, the filter setup was rinsed under vacuum with 30 mL of distilled water into the filtrate.

From patent publication US20240165180A1, “Processes for Extracting Muscimol from Amanita Muscaria” (priority 2021, published 2024) come the findings set out here.

Regarding `NCc1cc(=O)[nH]o1` [muscimol, 5-(Aminomethyl)-1,2-oxazol-3(2H)-one], the stability to heat entry is recorded as “begins degrading (to a very minimal degree)”.
